Like-named read-outs stand apart in the source and are kept apart here.

Broadly, the Vmax is the top rate of the reaction or transport when substrate is in excess. As usually defined, the Km is the substrate concentration at which the rate is half of its maximum.

The target in data set [1] is T1, UGT1A7 (Homo sapiens, UniProt Q9HAW7).
T1 sequence (Q9HAW7 26-530): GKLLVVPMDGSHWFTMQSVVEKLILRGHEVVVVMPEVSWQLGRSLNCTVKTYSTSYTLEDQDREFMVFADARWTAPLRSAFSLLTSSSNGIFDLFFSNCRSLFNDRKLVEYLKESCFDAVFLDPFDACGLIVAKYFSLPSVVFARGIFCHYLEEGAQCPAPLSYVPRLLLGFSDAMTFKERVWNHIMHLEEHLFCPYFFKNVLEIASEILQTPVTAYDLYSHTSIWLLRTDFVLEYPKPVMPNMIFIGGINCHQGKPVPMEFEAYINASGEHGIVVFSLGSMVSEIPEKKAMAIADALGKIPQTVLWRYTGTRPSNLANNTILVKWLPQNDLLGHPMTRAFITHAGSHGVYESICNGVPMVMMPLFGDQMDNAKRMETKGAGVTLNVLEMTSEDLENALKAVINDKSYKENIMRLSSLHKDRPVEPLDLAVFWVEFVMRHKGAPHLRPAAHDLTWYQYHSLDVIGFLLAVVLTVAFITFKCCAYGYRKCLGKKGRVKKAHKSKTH
As to the kind of experiment: UGT1A7 glucuronidation kinetics of flavonols. Particulars: formation of 3-O-glucuronide, substrate inhibition constant. The data set is classed as in vitro ADME.

In data set [2] the target is T2, UGT1A9 (Homo sapiens, UniProt O60656).
T2 sequence (O60656 26-530): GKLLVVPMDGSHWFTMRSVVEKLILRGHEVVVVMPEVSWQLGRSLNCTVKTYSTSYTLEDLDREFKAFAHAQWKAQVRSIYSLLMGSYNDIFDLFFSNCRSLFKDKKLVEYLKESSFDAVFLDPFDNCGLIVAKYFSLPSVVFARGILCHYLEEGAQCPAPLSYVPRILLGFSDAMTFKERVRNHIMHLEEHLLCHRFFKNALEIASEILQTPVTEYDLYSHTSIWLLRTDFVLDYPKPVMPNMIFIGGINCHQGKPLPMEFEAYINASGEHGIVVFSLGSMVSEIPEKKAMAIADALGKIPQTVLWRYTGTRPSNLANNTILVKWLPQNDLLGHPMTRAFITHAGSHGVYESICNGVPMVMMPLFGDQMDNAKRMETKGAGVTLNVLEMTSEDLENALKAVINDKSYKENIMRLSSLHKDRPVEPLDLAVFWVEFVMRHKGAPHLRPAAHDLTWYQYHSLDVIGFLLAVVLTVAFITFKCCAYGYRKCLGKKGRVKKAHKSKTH
As to the kind of experiment: UGT1A9 glucuronidation kinetics of flavonols. In kind it is in vitro ADME. Particulars: for Ks: substrate inhibition constant.

Data set [3] deals with T3, UGT1A1 (Homo sapiens, UniProt P22309).
T3 sequence (P22309 26-533): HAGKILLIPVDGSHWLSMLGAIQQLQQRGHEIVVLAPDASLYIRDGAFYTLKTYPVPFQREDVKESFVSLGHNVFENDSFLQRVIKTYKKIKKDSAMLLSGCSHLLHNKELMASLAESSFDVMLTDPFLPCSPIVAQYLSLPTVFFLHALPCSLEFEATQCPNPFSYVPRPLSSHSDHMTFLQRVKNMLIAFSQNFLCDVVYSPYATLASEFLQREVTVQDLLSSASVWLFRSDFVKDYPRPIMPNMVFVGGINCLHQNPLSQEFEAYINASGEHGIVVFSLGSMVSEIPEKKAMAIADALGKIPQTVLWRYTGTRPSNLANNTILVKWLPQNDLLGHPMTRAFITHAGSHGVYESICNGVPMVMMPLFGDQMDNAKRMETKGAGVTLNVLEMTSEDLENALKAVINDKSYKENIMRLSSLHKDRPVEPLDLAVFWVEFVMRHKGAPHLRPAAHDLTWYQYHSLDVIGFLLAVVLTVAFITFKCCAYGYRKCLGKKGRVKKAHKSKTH
The data set is described as follows: UGT1A1 glucuronidation kinetics of flavonols. In kind it is in vitro ADME. Conditions: for Ks: substrate inhibition constant.

Data set [4] has as its target T4, UGT1A3 (Homo sapiens, UniProt P35503).
T4 sequence (P35503 29-534): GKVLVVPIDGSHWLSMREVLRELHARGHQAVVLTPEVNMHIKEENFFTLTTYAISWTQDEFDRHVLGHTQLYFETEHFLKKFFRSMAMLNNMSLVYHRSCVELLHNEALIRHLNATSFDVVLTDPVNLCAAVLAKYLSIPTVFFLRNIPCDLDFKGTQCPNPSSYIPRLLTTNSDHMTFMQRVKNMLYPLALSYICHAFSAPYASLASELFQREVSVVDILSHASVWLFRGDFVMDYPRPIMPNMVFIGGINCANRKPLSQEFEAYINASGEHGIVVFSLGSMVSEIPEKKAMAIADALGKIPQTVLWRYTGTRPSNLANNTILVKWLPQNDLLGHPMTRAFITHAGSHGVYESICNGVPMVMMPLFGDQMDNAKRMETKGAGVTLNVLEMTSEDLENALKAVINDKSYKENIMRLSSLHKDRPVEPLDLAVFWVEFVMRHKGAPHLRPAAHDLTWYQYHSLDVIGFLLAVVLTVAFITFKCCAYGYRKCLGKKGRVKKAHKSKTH
As to the kind of experiment: UGT1A3 glucuronidation kinetics of flavonols. In kind it is in vitro ADME. Particulars: substrate inhibition constant.

For data set [5], the target named is T2, UGT1A9. Particulars: ref 32 (Chen et al.); cited from earlier work.
Data set [6] addresses T3, UGT1A1. Conditions: cited from earlier work.
Data set [7] deals with T5, UGT1A8 (Homo sapiens, UniProt Q9HAW9).
T5 sequence (Q9HAW9 26-530): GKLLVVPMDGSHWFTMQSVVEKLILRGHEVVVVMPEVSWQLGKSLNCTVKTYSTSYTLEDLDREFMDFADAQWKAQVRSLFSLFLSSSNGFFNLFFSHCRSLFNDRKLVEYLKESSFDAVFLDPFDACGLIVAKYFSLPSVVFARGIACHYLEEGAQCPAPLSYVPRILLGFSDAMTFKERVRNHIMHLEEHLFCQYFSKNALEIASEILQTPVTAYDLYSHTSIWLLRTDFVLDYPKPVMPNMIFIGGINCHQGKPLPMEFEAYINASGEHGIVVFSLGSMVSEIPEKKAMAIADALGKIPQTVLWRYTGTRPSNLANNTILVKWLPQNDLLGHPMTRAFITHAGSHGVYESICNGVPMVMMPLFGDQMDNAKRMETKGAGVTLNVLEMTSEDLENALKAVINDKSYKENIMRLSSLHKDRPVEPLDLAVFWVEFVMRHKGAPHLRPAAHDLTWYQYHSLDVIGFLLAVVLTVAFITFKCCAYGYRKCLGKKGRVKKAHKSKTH
As to the kind of experiment: UGT1A8 glucuronidation kinetics of flavonols. The data set is classed as in vitro ADME. Conditions: formation of 3-O-glucuronide.

Data set [8] concerns the target T6, UGT1A10 (Homo sapiens, UniProt Q9HAW8).
T6 sequence (Q9HAW8 26-530): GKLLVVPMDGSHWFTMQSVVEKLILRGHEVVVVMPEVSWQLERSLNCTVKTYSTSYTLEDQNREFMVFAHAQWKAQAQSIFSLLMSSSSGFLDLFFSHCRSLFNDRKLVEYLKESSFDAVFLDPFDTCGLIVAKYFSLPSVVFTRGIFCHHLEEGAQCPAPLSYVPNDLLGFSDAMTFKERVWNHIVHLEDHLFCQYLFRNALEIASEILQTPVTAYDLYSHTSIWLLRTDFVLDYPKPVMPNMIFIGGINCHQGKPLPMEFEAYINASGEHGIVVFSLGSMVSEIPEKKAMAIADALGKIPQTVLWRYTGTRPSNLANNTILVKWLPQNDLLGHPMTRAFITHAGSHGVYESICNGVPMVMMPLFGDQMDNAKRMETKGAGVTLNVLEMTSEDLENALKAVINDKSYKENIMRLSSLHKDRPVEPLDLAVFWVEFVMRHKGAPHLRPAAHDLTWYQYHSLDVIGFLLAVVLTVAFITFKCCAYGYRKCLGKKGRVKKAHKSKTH
As to the kind of experiment: UGT1A10 glucuronidation kinetics of flavonols. In kind it is in vitro ADME. Particulars: substrate inhibition constant.

Data set [9] deals with T4, UGT1A3. Conditions: published observation; cited from earlier work.
Substrate in data set [10]: O=c1c(O)c(-c2ccccc2)oc2cc(O)cc(O)c12
The data set is described as follows: UGT1A3 glucuronidation kinetics of flavonols. Particulars: other: UGT1A3, pH 6.5. The data set is classed as in vitro ADME, human.

Substrate in data set [11]: O=c1c(O)c(-c2ccc(O)cc2)oc2cc(O)cc(O)c12
The data set is described as follows: UGT1A3 glucuronidation kinetics of flavonols. The data set is classed as in vitro ADME, human. Particulars: other: UGT1A3; formation of 7-O-glucuronide; pH 6.5.

Substrate in data set [12]: O=c1c(O)c(-c2ccccc2)oc2cc(O)ccc12
As to the kind of experiment: UGT1A3 glucuronidation kinetics of flavonols. The data set is classed as in vitro ADME, human. Conditions: other: UGT1A3, pH 6.5.

In the case of `O=c1c(O)c(-c2ccccc2)oc2cc(O)ccc12` [3,7DHF, 3,7-dihydroxyflavone], the Ks is on record as 309.17 ± 127.39 µM in data set [1]; 30.13 ± 7.11 µM in data set [2] (formation of 3-O-glucuronide); 0.60 ± 0.38 µM in data set [3] (formation of 3-O-glucuronide); 1.21 ± 0.23 µM in data set [3] (formation of 7-O-glucuronide); 100.05 ± 94.80 µM in data set [4] (formation of 3-O-glucuronide); 50.00 ± 80.17 µM in [4] (formation of 7-O-glucuronide). Also, the Vmax in [2] (formation of 7-O-glucuronide) stood at 2.04 nmol/mg/min; in [3] (formation of 3-O-glucuronide) it was 1.02 nmol/mg/min; in [3] (formation of 7-O-glucuronide), 3.04 nmol/mg/min. For the same molecule, the Ks/Km ratio came out at 0.38 in data set [3] (3-O-glucuronidation) and 1.16 in [3] (7-O-glucuronidation).

`O=c1c(O)c(-c2ccc(O)c(O)c2)oc2cc(O)cc(O)c12` [quercetin, 3,5,7,3’,4’-pentahydroxyflavone]: the regioselectivity of glucuronidation in data set [5] was 3-O-glucuronidation was most efficient with the highest CLint value.

For the molecule `C#C[C@]1(O)CC[C@H]2[C@@H]3CCc4cc(O)ccc4[C@H]3CC[C@@]21C` [ethinylestradiol], the Km in [6] (reported value) is 49.8 µM. The Ks/Km ratio in data set [6] (substrate inhibition at high concentrations of UDPGA) is given as 1.61.

`O=c1c(O)c(-c2ccccc2)oc2cc(O)cc(O)c12` [3,5,7THF, 3,5,7-trihydroxyflavone]: the Ks in data set [1] is 55.75 ± 7.27 µM; in data set [7] (substrate inhibition constant), 37.28 ± 10.12 µM; in data set [2] (formation of 3-O-glucuronide), 7.43 ± 2.12 µM; in [3] (formation of 3-O-glucuronide) it was 2.64 ± 0.89 µM; in data set [3] (formation of 7-O-glucuronide), 1.22 ± 0.19 µM; in data set [4] (formation of 3-O-glucuronide), 17.86 ± 6.33 µM. Moreover, the results for the Ks in [4] (formation of 7-O-glucuronide) and in data set [8] (formation of 3-O-glucuronide) were 9.95 ± 9.16 µM and 73.48 ± 17.82 µM, respectively. In addition, the Vmax is given as 3.89 nmol/mg/min in data set [7]; 7.41 ± 0.89 nmol/mg/min in data set [2] (formation of 3-O-glucuronide); 2.56 ± 0.10 nmol/mg/min in [2] (formation of 7-O-glucuronide); 0.82 nmol/mg/min in data set [3] (formation of 3-O-glucuronide); 4.59 nmol/mg/min in data set [3] (formation of 7-O-glucuronide). The values for the Km in data set [2] (formation of 3-O-glucuronide) and in data set [2] (formation of 7-O-glucuronide) were 0.68 ± 0.16 µM and 0.54 ± 0.08 µM, respectively.

As for `COc1ccc(C2CC(=O)c3c(O)cc(O)cc3O2)cc1O` (stereo not shown) [hesperetin, 4'-methoxy-3',5,7-trihydroxyflavanone], the glucuronide generated entry in data set [9] was “only 7-O-glucuronide was generated”.

As for `O=c1c(O)c(-c2ccc(O)cc2)oc2cc(O)cc(O)c12` [3,5,7,4’QHF, 3,5,7,4’-tetrahydroxyflavone], the Ks is 2.81 ± 0.67 µM in data set [3] (formation of 7-O-glucuronide), 7.52 ± 9.58 µM in [4] (formation of 7-O-glucuronide), 30.01 ± 8.00 µM in data set [8] (formation of 3-O-glucuronide) and 51.37 ± 27.15 µM in [8] (formation of 7-O-glucuronide).

B1: UGT1A3 (Homo sapiens) (protein)
chain: GKVLVVPIDGSHWLSMREVLRELHARGHQAVVLTPEVNMHIKEENFFTLTTYAISWTQDEFDRHVLGHTQLYFETEHFLKKFFRSMAMLNNMSLVYHRSCVELLHNEALIRHLNATSFDVVLTDPVNLCAAVLAKYLSIPTVFFLRNIPCDLDFKGTQCPNPSSYIPRLLTTNSDHMTFMQRVKNMLYPLALSYICHAFSAPYASLASELFQREVSVVDILSHASVWLFRGDFVMDYPRPIMPNMVFIGGINCANRKPLSQEFEAYINASGEHGIVVFSLGSMVSEIPEKKAMAIADALGKIPQTVLWRYTGTRPSNLANNTILVKWLPQNDLLGHPMTRAFITHAGSHGVYESICNGVPMVMMPLFGDQMDNAKRMETKGAGVTLNVLEMTSEDLENALKAVINDKSYKENIMRLSSLHKDRPVEPLDLAVFWVEFVMRHKGAPHLRPAAHDLTWYQYHSLDVIGFLLAVVLTVAFITFKCCAYGYRKCLGKKGRVKKAHKSKTH
With B1, the Km in data set [10] (formation of 3-O-glucuronide) is 0.84 ± 0.18 µM; in data set [10] (formation of 7-O-glucuronide) it was 2.12 ± 1.24 µM; in [11], 3.30 ± 3.10 µM; in data set [12] (formation of 3-O-glucuronide), 8.81 ± 2.72 µM; in data set [12] (formation of 7-O-glucuronide) it was 7.02 ± 3.76 µM. In addition, the Vmax in data set [10] (formation of 3-O-glucuronide) is listed as 0.17 ± 0.01 nmol/mg/min; in data set [10] (formation of 7-O-glucuronide), 3.44 ± 0.84 nmol/mg/min; in [11] it was 0.86 ± 0.35 nmol/mg/min; in [12] (formation of 3-O-glucuronide), 0.18 ± 0.02 nmol/mg/min; in data set [12] (formation of 7-O-glucuronide), 1.89 ± 0.36 nmol/mg/min. The Vmax/Km in [10] (formation of 3-O-glucuronide) was 200 µL/min/mg; in [10] (formation of 7-O-glucuronide), 1620 µL/min/mg; in data set [11], 260 µL/min/mg; in data set [12] (formation of 3-O-glucuronide), 20 µL/min/mg; in [12] (formation of 7-O-glucuronide), 270 µL/min/mg.

(Values after publication PMC3426363 (Pharmaceutical research, 2011).)
